# Results from patent EP4644383A1 (Jiangsu Yahong Meditech Co., Ltd., priority 2022, dated 2024).
# Read-outs that look alike come from different tables or passages of the source.
# Tests used:
# Assay type in all cases: biochemical
# FGFR1 = molecular target: T1, FGFR1 (Homo sapiens, UniProt P11362); experiment: FGFR1 kinase activity inhibition assay (LanthaScreen TR-FRET)
# T1 construct: cytoplasmic domain [398-822 (terminal) amino acids]; purchased Carna 08-133
# In short: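 Emission ratio 520 nm/495 nm by TR-FRET after stopping reaction with 10 mM EDTA and 60 min incubation at 22°C. Inhibition normalized between no-enzyme (min) and DMSO (max) controls, then fitted to a four-parameter curve (Top, Bottom, HillSlope).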
# FGFR2 = molecular target: T2, FGFR2 (Homo sapiens, UniProt P21802); experiment: FGFR2 kinase activity inhibition assay (LanthaScreen TR-FRET)
# T2 construct: FGFR2's cytoplasmic domain [399-821 (terminal) amino acids]; purchased Carna 08-134
# T2 sequence (P21802 399-821): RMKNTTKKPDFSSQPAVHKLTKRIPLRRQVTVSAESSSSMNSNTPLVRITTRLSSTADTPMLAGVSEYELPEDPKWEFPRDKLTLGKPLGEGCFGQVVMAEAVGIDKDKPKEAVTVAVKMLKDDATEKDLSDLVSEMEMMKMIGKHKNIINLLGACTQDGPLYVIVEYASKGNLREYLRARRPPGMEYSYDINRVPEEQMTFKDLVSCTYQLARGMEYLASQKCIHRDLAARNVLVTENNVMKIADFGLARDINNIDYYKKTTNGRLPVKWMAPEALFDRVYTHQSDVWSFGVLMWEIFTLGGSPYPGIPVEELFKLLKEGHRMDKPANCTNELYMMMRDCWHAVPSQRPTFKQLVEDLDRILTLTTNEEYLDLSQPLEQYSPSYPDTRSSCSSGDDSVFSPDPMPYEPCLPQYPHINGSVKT
# Procedure: (§1) FGFR1 kinase activity was measured using Invitrogen LanthaScreen™ assay technology, which utilized fluorescently-labeled peptides and terbium-labeled antibodies to directly measure an amount of the phosphorylated substrate through time-resolved fluorescence energy transfer (TR-FRET). • ① The test compounds were diluted: starting from a concentration of 1 µM, with a buffer solution in a three-fold serial dilution, the buffer solution being composed of 50 mM HEPES, 10 mM MgCl2, 0.01% TritonX-100, 0.01% BSA, 4 mM DTT (pH 7.5), and 1% DMSO; • ② 0.01 nM recombinant human GST fusion protein FGFR1's cytoplasmic domain [398-822 (terminal) amino acids] (Carna: 08-133) was formulated into a 2 × solution, mixed well with the test compounds, and incubated at 23°C for 10 minutes; • ③ 28 nM Fluorescein-Poly GT peptide substrate (Life Technologies: PV3611) and 28 µM ATP were formulated into a 2 × solution, mixed well with the test compounds and enzyme in ②, and incubated at 23°C for 30 minutes; • ④ 10 µL of 2nM Tb-PY20 antibody (Life Technologies: PV3552) and 10 mM EDTA were added to quench the kinase reaction, and incubated at 22°C for 60 minutes. • ⑤ The reaction was measured using a PerkinElmer EnVision multimode plate reader through TR-FRET dual wavelength detection. • 1. The RFU values were copied from the Envision program. • 2. The ratio of RFU 520nm/RFU 495nm was calculated. • 3. The value of the ratio was converted to a percentage inhibition value. % Inhibition = (max-data)/(max-min) × 100 [formula]
# (§2) "Min" represents the ratio of the control without enzyme, "max" represents the ratio of the DMSO control, and "data" represents the ratio of the compounds in wells with different concentrations.
# (§3) "Top" refers to the maximum response, "Bottom" refers to the minimum response, and "HillSlope" refers to the slope of the curve.
# According to the same method as that in the FGFR1 kinase activity inhibition assay, the inhibitory activities against FGFR2, FGFR3 and FGFR4 were tested using FGFR2's cytoplasmic domain [399-821 (terminal) amino acids] (Carna: 08-134), FGFR3's cytoplasmic domain [436-806 (terminal) amino acids] (Carna: 08-135) and FGFR4's cytoplasmic domain [460-802 (terminal) amino acids] (Carna: 08-136), respectively. […]
# FGFR3 = molecular target: T3, FGFR3 (Homo sapiens, UniProt P22607); experiment: FGFR3 kinase activity inhibition assay (LanthaScreen TR-FRET); conditions: for Selectivity (X) FGFR1/FGFR3: ratio of IC50 FGFR1/FGFR3, selectivity towards FGFR3; for Selectivity (X) FGFR2/FGFR3: ratio of IC50 FGFR2/FGFR3, selectivity towards FGFR3; for Selectivity (X) FGFR4/FGFR3: ratio of IC50 FGFR4/FGFR3, selectivity towards FGFR3
# T3 construct: FGFR3's cytoplasmic domain [436-806 (terminal) amino acids]; purchased Carna 08-135
# T3 sequence (P22607 436-806): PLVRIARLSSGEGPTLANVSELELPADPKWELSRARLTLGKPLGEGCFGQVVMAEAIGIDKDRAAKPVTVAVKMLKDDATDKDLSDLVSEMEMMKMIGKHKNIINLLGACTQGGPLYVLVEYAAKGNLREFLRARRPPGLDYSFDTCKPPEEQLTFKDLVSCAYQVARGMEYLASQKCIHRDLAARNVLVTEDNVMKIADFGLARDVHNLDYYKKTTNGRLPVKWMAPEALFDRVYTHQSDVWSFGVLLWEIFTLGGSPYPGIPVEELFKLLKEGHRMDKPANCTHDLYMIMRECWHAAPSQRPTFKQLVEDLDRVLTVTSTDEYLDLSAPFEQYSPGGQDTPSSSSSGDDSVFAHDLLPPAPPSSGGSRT
# In short: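 Read-out is TR-FRET, with the 520 nm/495 nm emission ratio normalised to DMSO (max) and enzyme-free (min) controls. Enzyme was the FGFR3 cytoplasmic domain, residues 436-806. EDTA (10 mM) stopped the reaction, followed by 60 min at 22 °C before reading.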
# FGFR4 = molecular target: T4, FGFR4 (Homo sapiens, UniProt P22455); experiment: FGFR4 kinase activity inhibition assay (LanthaScreen TR-FRET)
# T4 construct: FGFR4's cytoplasmic domain [460-802 (terminal) amino acids]; purchased Carna 08-136
# T4 sequence (P22455 460-802): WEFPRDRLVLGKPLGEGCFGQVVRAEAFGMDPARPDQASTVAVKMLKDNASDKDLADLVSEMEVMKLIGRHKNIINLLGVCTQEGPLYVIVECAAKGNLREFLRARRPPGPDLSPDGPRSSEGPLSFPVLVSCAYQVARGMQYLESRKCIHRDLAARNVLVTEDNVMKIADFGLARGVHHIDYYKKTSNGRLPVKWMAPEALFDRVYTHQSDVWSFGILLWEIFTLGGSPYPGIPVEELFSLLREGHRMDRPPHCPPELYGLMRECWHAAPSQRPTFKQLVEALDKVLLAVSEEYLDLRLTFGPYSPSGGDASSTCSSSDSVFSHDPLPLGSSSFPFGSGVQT
# Procedure: as §1, §2, §3
# According to the same method as that in the FGFR1 kinase activity inhibition assay, the inhibitory activities against FGFR2, FGFR3 and FGFR4 were tested using FGFR2's cytoplasmic domain [399-821 (terminal) amino acids] (Carna: 08-134), FGFR3's cytoplasmic domain [436-806 (terminal) amino acids] (Carna: 08-135) and FGFR4's cytoplasmic domain [460-802 (terminal) amino acids] (Carna: 08-136), respectively. Table 1 reports the kinase activity inhibition results and selectivity towards FGFR3 of each compound.
# [1] = FGFR1 kinase, TR-FRET, read-out: IC50 (nM) FGFR1
# [2] = FGFR2 kinase, TR-FRET, read-out: IC50 (nM) FGFR2
# [3] = FGFR3 kinase, TR-FRET, read-out: IC50 (nM) FGFR3
# [4] = FGFR4 kinase, TR-FRET, read-out: IC50 (nM) FGFR4
# T1 sequence (P11362 398-822): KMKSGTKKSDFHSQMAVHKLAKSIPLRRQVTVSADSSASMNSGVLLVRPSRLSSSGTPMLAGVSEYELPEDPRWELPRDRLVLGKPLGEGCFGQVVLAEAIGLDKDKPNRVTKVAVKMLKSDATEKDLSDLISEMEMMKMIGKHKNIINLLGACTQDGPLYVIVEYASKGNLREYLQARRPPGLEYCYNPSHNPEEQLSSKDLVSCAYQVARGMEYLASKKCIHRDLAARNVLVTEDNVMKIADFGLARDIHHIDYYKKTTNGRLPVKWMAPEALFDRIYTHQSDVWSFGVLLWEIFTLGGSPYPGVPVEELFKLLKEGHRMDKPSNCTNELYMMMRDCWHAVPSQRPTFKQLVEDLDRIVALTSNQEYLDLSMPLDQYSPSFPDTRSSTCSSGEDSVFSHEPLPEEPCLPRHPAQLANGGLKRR
SMILES,IC50 (FGFR1; [1]),IC50 (FGFR2; [2]),IC50 (FGFR3; [3]),Selectivity (X) FGFR1/FGFR3 (FGFR3),Selectivity (X) FGFR2/FGFR3 (FGFR3),Selectivity (X) FGFR4/FGFR3 (FGFR3),IC50 (FGFR4; [4]),IC50 (FGFR1),IC50 (FGFR2),IC50 (FGFR3),IC50 (FGFR4)
"CC(Oc1ccc2[nH]nc(-c3cnn(C4CC(N(C)C)C4)c3)c2c1)c1cccc2nccnc12 (stereo not shown) [Example 170, N,N-dimethyl-3-(4-(5-(1-(quinoxalin-5-yl)ethoxy)-1H-indazol-3-yl)-1H-pyrazol-1-yl)cyclobutan-1-amine]",1 to 10 nM,1 to 10 nM,< 1 nM,A (A represents 1 ≤ multiple X<20),A (A represents 1 ≤ multiple X<20),C (C represents 50 ≤ multiple X<100),10 to 100 nM,–,–,–,–
"Cc1c(F)cc2ncccc2c1C(C)Oc1ccc2[nH]nc(-c3cnn(C)c3)c2c1 (stereo not shown) [Example 161, 7-fluoro-6-methyl-5-(1-((3-(1-methyl-1H-pyrazol-4-yl)-1H-indazol-5-yl)oxy)ethyl)quinoline]",10 to 100 nM,10 to 100 nM,1 to 10 nM,B (B represents 20 ≤ multiple X<50),A (A represents 1 ≤ multiple X<20),B (B represents 20 ≤ multiple X<50),10 to 100 nM,–,–,–,–
"[2H]C([2H])([2H])c1ccc2ncccc2c1C(C)Oc1ccc2[nH]nc(-c3cnn(C)c3)c2c1 (stereo not shown) [Example 187, 6-(methyl-d3) - 5-(1-((3-(1-methyl-1H-pyrazol-4-yl)-1H-indazol-5-yl)oxy)ethyl)qu inoline]",10 to 100 nM,10 to 100 nM,1 to 10 nM,B (B represents 20 ≤ multiple X<50),A (A represents 1 ≤ multiple X<20),B (B represents 20 ≤ multiple X<50),10 to 100 nM,–,–,–,–
"CC(Oc1ccc2[nH]nc(-c3cnn(C4CN(C)C4)c3)c2c1)c1cccc2nccnc12 (stereo not shown) [Example 158, 5-(1-((3-(1-(1-methylazetidin-3-yl)-1H-pyrazol-4-yl)-1H-indazol-5-yl)oxy)ethyl)q uinoxaline]",10 to 100 nM,1 to 10 nM,1 to 10 nM,B (B represents 20 ≤ multiple X<50),A (A represents 1 ≤ multiple X<20),C (C represents 50 ≤ multiple X<100),10 to 100 nM,–,–,–,–
"CC(Oc1ccc2[nH]nc(-c3cnn(C)c3)c2c1)c1cc(Cl)cc2ncccc12 (stereo not shown) [Example 134, 7-chloro-5-(1-((3-(1-methyl-1H-pyrazol-4-yl)-1H-indazol-5-yl)oxy)ethyl)qu inoline]",> 100 nM,10 to 100 nM,1 to 10 nM,C (C represents 50 ≤ multiple X<100),A (A represents 1 ≤ multiple X<20),D (D represents 100 ≤ multiple X),> 100 nM,–,–,–,–
"C[C@@H](Oc1ccc2[nH]nc(-c3cnn(CCc4cccnc4)c3)c2n1)c1c(Cl)cncc1Cl [Example 61, (R)-5-(1-(3,5-dichloropyridin-4-yl)ethoxy)-3-(1-(2-(pyridin-3-yl)ethyl)-1H-pyrazol-4-yl)-1H-pyrazolo[4,3-b]pyridine]",10 to 100 nM,1 to 10 nM,1 to 10 nM,A (A represents 1 ≤ multiple X<20),A (A represents 1 ≤ multiple X<20),B (B represents 20 ≤ multiple X<50),10 to 100 nM,–,–,–,–
"CC(Oc1ccc2[nH]nc(-c3cnn(C)c3)c2c1)c1c(CO)ccc2ncccc12 (stereo not shown) [Example 156, (5-(1-((3-(1-methyl-1H-pyrazol-4-yl)-1H-indazol-5-yl)oxy)ethyl)quinolin-6-yl)m ethano]",–,–,–,B (B represents 20 ≤ multiple X<50),A (A represents 1 ≤ multiple X<20),A (A represents 1 ≤ multiple X<20),–,10 to 100 nM,1 to 10 nM,1 to 10 nM,10 to 100 nM
